Laboratory results: paper doi:10.1101/2025.10.17.681057v1 (biorxiv, 2025)

Key:
human CYP2J2 = molecular target: T1, human CYP2J2 (Homo sapiens, UniProt P51589); assay: P450 spectral binding titration
T1 sequence (P51589 1-502): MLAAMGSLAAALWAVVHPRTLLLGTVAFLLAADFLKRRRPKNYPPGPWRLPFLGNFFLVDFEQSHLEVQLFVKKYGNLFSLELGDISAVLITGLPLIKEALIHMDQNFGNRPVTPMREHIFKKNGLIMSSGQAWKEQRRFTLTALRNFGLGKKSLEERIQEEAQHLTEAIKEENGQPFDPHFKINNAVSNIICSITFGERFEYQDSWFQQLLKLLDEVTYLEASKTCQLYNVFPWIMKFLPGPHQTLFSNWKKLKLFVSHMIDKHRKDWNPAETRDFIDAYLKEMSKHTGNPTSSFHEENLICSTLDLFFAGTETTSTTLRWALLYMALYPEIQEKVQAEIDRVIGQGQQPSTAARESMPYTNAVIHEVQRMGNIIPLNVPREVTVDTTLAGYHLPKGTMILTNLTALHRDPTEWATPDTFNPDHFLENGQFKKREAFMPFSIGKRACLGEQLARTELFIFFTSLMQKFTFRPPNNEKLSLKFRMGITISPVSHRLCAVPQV

CYP3A4 = CYP3A4 (Homo sapiens, UniProt P08684); assay: P450 spectral binding titration
[1] = molecular target: T2, Fatty Acid Amide Hydrolase (FAAH) (Homo sapiens, UniProt O00519); assay: fluorescence assay of AMC release from anandamide-AMC, 4-parameter logistic fit; format: biochemical
T2 sequence (O00519 1-579): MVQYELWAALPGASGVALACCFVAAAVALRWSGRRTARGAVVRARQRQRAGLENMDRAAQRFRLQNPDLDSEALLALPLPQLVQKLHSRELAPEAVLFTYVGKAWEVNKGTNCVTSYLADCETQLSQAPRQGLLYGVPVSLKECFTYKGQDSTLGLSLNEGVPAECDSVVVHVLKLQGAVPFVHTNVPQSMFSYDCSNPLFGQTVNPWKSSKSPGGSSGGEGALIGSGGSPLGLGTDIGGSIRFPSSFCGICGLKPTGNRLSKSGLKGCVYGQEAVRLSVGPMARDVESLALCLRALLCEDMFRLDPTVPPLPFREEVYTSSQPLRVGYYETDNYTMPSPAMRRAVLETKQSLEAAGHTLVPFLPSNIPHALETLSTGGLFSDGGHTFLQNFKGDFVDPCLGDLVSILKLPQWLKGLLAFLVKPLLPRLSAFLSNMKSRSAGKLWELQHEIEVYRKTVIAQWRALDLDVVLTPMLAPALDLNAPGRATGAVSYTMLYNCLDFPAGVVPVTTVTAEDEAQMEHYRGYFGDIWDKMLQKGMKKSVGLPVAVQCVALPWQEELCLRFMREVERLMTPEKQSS

CYP3A4, sequence (P08684 2-503): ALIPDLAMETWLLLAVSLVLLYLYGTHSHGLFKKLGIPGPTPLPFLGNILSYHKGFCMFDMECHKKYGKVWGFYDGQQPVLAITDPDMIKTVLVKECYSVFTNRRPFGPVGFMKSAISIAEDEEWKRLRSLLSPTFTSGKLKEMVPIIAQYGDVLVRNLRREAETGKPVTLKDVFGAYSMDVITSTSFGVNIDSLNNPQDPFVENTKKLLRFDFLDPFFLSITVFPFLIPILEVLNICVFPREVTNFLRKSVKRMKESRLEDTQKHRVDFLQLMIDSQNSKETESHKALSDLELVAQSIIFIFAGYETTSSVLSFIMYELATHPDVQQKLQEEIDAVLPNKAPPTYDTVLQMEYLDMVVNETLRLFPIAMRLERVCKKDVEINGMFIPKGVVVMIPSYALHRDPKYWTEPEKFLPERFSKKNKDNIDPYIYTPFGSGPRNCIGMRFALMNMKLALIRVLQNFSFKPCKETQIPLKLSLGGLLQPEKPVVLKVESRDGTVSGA

Row | Kd (CYP3A4) [µM] | SMILES | Kd (human CYP2J2) [µM] | IC50 [1] [µM]
1 | 20.3 ± 6.13 | CC/C=C\C/C=C\C/C=C\C/C=C\C/C=C\C/C=C\CCC(=O)NCC(=O)O [DHA-Gly] | 2.47 ± 0.26 | 35.3 ± 1.82
2 | – | CCCCC/C=C\C/C=C\C/C=C\C/C=C\CCCC(=O)NCC(=O)O [NA-Gly] | 3.3 ± 0.31 | 14.2 ± 1.07
